Where a name gives a salt, the structure may show the parent alone. Active and inactive are the calls of the source.
Assays:
Ephrin type-B receptor 3 = molecular target: T1, Ephrin type-B receptor 3 (Homo sapiens, UniProt P54753)
T1 sequence (P54753 whole entry): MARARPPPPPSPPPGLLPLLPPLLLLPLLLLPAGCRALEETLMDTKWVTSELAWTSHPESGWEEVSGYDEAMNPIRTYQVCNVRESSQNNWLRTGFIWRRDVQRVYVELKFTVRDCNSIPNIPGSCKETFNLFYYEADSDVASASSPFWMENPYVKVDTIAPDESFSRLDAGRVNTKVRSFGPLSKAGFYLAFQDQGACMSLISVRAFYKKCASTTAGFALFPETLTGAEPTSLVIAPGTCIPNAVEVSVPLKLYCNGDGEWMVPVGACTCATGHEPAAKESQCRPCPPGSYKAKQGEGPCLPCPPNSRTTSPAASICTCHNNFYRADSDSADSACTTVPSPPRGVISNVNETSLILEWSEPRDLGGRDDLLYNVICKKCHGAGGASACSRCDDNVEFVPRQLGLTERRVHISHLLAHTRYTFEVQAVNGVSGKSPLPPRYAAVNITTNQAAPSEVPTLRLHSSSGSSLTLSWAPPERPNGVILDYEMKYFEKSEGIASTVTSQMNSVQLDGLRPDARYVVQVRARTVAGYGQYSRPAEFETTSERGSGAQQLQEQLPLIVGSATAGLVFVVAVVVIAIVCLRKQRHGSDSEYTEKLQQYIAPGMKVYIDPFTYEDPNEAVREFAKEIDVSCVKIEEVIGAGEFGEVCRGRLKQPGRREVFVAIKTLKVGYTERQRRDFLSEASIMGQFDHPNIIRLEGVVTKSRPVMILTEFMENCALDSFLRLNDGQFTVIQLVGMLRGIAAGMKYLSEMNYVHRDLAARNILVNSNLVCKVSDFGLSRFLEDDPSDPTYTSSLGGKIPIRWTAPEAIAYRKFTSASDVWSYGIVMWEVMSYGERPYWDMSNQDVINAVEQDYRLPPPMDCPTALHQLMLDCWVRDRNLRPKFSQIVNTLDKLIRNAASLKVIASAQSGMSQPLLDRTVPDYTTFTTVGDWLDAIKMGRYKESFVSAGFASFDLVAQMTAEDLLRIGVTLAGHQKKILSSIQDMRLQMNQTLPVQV

[1] = molecular target: T2, Serine/threonine-protein kinase A-Raf (Homo sapiens, UniProt P10398)
T2 sequence (P10398 whole entry): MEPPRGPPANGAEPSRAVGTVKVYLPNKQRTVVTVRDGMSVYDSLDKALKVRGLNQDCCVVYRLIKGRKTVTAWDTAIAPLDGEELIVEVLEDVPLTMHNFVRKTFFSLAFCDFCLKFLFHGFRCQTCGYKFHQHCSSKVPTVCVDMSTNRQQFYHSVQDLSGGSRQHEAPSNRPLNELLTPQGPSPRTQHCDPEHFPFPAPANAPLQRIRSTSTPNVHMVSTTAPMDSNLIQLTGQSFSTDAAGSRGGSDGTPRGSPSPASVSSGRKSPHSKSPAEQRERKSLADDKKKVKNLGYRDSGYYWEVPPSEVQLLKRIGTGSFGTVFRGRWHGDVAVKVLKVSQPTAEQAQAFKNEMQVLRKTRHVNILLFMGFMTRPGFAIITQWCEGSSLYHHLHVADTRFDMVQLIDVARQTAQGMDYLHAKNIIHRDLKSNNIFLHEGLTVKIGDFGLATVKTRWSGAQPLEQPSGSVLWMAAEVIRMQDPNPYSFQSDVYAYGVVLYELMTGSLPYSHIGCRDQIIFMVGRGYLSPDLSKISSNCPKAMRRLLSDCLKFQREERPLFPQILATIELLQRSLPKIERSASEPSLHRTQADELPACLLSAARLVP

[2] = molecular target: Cyclin-dependent kinase 5 (Homo sapiens, UniProt Q00535)
[3] = molecular target: T3, Phosphatidylinositol 5-phosphate 4-kinase type-2 gamma (Homo sapiens, UniProt Q8TBX8)
T3 sequence (Q8TBX8 whole entry): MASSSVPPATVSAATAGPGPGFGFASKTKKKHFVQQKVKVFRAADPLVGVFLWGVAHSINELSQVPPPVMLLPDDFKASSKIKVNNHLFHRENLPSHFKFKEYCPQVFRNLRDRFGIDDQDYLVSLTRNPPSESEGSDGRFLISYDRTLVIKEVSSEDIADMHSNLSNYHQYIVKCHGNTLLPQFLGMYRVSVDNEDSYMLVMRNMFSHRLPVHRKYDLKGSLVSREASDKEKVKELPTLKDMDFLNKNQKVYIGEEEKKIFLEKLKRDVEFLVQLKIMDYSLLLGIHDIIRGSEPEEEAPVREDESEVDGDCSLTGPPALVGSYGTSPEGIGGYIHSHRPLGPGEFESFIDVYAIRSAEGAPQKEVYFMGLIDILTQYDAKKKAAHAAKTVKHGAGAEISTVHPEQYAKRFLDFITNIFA

[4] = molecular target: T4, Probable ATP-dependent RNA helicase DDX6 (Homo sapiens, UniProt P26196)
T4 sequence (P26196 whole entry): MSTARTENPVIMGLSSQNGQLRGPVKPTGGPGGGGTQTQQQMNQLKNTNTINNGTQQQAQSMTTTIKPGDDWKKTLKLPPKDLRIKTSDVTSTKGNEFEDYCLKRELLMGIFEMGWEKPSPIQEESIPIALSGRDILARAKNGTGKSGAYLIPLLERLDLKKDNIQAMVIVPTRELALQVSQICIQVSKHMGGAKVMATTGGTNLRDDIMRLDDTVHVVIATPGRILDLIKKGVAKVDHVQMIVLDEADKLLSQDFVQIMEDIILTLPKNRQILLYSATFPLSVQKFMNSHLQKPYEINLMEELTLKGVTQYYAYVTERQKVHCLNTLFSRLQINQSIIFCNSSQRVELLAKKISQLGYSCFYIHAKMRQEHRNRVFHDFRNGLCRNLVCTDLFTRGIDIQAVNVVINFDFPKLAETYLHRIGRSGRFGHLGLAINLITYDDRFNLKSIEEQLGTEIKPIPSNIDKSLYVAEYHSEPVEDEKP
Also: in the data inactive means no Kd found up to 30 µM.

Sequence of Cyclin-dependent kinase 5 (Q00535 whole entry): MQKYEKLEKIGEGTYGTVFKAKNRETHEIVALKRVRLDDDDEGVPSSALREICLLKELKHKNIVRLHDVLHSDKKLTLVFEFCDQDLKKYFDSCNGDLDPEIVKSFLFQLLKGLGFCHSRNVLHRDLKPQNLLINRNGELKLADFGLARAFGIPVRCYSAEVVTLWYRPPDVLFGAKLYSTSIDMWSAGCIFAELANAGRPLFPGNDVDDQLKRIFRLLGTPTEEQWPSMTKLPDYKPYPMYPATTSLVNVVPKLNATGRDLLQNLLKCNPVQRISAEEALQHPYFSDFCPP

Kd (Ephrin type-B receptor 3) | Kd [1] | Kd [2] | Kd [3] | Kd [4] | Compound
> 30 µM (inactive) | > 30 µM (inactive) | > 30 µM (inactive) | > 30 µM (inactive) | > 30 µM (inactive) | Cc1cc(C(=O)NOCCO)c(Nc2ccc(I)cc2F)n(C)c1=O [AZD-8330]
> 30 µM (inactive) | > 30 µM (inactive) | > 30 µM (inactive) | > 30 µM (inactive) | > 30 µM (inactive) | CCn1c(C(=O)N(C2CC2)C2CC2)cc2c3c(ncn3C)c(Nc3cc(C)n(C)n3)nc21 [BMS-911543]
> 30 µM (inactive) | > 30 µM (inactive) | > 30 µM (inactive) | > 30 µM (inactive) | > 30 µM (inactive) | COc1cc2ncnc(Oc3cccc(NC(=O)Nc4cc(C(C)(C)C(F)(F)F)on4)c3)c2cc1OC [CEP-32496]
> 30 µM (inactive) | > 30 µM (inactive) | > 30 µM (inactive) | > 30 µM (inactive) | > 30 µM (inactive) | COCC(=O)NC/C=C/c1ccc2ncnc(Nc3ccc(Oc4ccc(C)nc4)c(C)c3)c2c1 [CP-724714]
> 30 µM (inactive) | > 30 µM (inactive) | > 30 µM (inactive) | > 30 µM (inactive) | > 30 µM (inactive) | C#Cc1cccc(Nc2ncnc3cc(OC)c(OCCCCCCC(=O)NO)cc23)c1 [CUDC-101]
> 30 µM (inactive) | > 30 µM (inactive) | > 30 µM (inactive) | > 30 µM (inactive) | > 30 µM (inactive) | COc1ccc(S(=O)(=O)N(C(C)=O)c2ccccc2/C=C/c2cc[n+]([O-])cc2)cc1 [HMN-214]
> 30 µM (inactive) | > 30 µM (inactive) | > 30 µM (inactive) | > 30 µM (inactive) | > 30 µM (inactive) | NC1(c2ccc(-c3nc4ccn5c(=O)[nH]nc5c4cc3-c3ccccc3)cc2)CCC1 [MK-2206]
> 30 µM (inactive) | > 30 µM (inactive) | > 30 µM (inactive) | 1.03 µM (active) | > 30 µM (inactive) | CN(C[C@@H]1COCCO1)S(=O)(=O)Nc1ccc2ccc3ncc(-c4cnn(C)c4)cc3c(=O)c2c1 [MK-2461]
> 30 µM (inactive) | > 30 µM (inactive) | > 30 µM (inactive) | > 30 µM (inactive) | > 30 µM (inactive) | Cn1cc(-c2cnc3ccc4ccc(CS(=O)(=O)NCc5ccccn5)cc4c(=O)c3c2)cn1 [MK-8033]
> 30 µM (inactive) | > 30 µM (inactive) | > 30 µM (inactive) | > 30 µM (inactive) | > 30 µM (inactive) | Cc1nc(Nc2n[nH]c3c2CN(C(=O)N[C@H](CN(C)C)c2ccccc2)C3(C)C)c2sccc2n1 [PF-03758309]

Continued, compound first:

Compound | Kd (Ephrin type-B receptor 3) | Kd [1] | Kd [2] | Kd [3] | Kd [4]
NC(=O)Nc1cc(-c2cccc(F)c2)sc1C(=O)N[C@H]1CCCNC1 [AZD-7762] | > 30 µM (inactive) | > 30 µM (inactive) | > 30 µM (inactive) | > 30 µM (inactive) | > 30 µM (inactive)
Cn1cnc2c(F)c(Nc3ccc(Br)cc3F)c(C(=O)NOCCO)cc21 [BINIMETINIB] | > 30 µM (inactive) | > 30 µM (inactive) | > 30 µM (inactive) | > 30 µM (inactive) | > 30 µM (inactive)
Cc1cc(Nc2ncc(Cl)c(Nc3ccccc3S(=O)(=O)C(C)C)n2)c(OC(C)C)cc1C1CCNCC1 [CERITINIB] | > 30 µM (inactive) | > 30 µM (inactive) | > 30 µM (inactive) | > 30 µM (inactive) | > 30 µM (inactive)
COc1c(OCCCN2CCOCC2)ccc2c1N=C(NC(=O)c1cnc(N)nc1)N1CCN=C21 [COPANLISIB] | > 30 µM (inactive) | > 30 µM (inactive) | > 30 µM (inactive) | > 30 µM (inactive) | > 30 µM (inactive)
CCS(=O)(=O)N1CCN(c2ccc(Nc3ncc(C(N)=O)c(NC4CC4)n3)cc2)CC1 [Cerdulatinib Hydrochloride] | > 30 µM (inactive) | > 30 µM (inactive) | > 30 µM (inactive) | > 30 µM (inactive) | > 30 µM (inactive)
CC(C)(C)c1nc(-c2cccc(NS(=O)(=O)c3c(F)cccc3F)c2F)c(-c2ccnc(N)n2)s1 [DABRAFENIB] | > 30 µM (inactive) | 0.047 µM (active) | 1.07 µM (active) | > 30 µM (inactive) | > 30 µM (inactive)
O=C(Nc1nc2cccc(-c3ccc(CN4CCS(=O)(=O)CC4)cc3)n2n1)C1CC1 [FILGOTINIB] | > 30 µM (inactive) | > 30 µM (inactive) | > 30 µM (inactive) | > 30 µM (inactive) | > 30 µM (inactive)
Cc1cccc(-c2nn3c(c2-c2ccnc4ccc(C(N)=O)cc24)CCC3)n1 [GALUNISERTIB] | > 30 µM (inactive) | > 30 µM (inactive) | > 30 µM (inactive) | > 30 µM (inactive) | > 30 µM (inactive)
CNC(=O)c1cccc2cc(Oc3ccnc4cc(OCC5(N)CC5)c(OC)cc34)ccc12 [LUCITANIB] | > 30 µM (inactive) | > 30 µM (inactive) | > 30 µM (inactive) | > 30 µM (inactive) | > 30 µM (inactive)
FC(F)(F)c1ccc(/C=C/c2nc(COc3ccc(CCCCn4ccnn4)cc3)co2)cc1 [MUBRITINIB] | > 30 µM (inactive) | > 30 µM (inactive) | > 30 µM (inactive) | > 30 µM (inactive) | > 30 µM (inactive)
COc1ncc(-c2ccc3nccc(-c4ccnnc4)c3c2)cc1NS(=O)(=O)c1ccc(F)cc1F [OMIPALISIB] | > 30 µM (inactive) | > 30 µM (inactive) | > 30 µM (inactive) | 1.37 µM (active) | > 30 µM (inactive)
CCOc1cc2ncc(C#N)c(Nc3ccc(F)c(Cl)c3)c2cc1NC(=O)/C=C/CN(C)C [PELITINIB] | > 30 µM (inactive) | > 30 µM (inactive) | > 30 µM (inactive) | > 30 µM (inactive) | > 30 µM (inactive)
CCCCCCCCCCCCCCCCCCOP(=O)([O-])OC1CC[N+](C)(C)CC1 [PERIFOSINE] | > 30 µM (inactive) | > 30 µM (inactive) | > 30 µM (inactive) | > 30 µM (inactive) | > 30 µM (inactive)
Cc1cnc(NC(=O)Nc2cc(Br)c(C)cc2OC[C@@H]2CNCCO2)cn1 [RABUSERTIB] | > 30 µM (inactive) | > 30 µM (inactive) | > 30 µM (inactive) | > 30 µM (inactive) | > 30 µM (inactive)
